Data on 13 compounds can be found in patent US12209102B2, “Heterocyclic compounds and uses thereof” (Kumquat Biosciences Inc., priority 2022, dated 2025).

A value given as a limit tells only on which side of the number the result lay.

Type in all cases: biochemical
Test [1] has as its target T1, K-Ras G12D (Homo sapiens, UniProt P01116, G12D).
T1 construct: made in house; host or cells: E. coli BL21 (DE3)
Nature of the test: HTRF resonance energy transfer assay, K-Ras G12D / SOS1 interaction. The settings on record: HTRF assay of Example 5; read-out: IC50 against K-Ras G12D. The text has this:
(§1) This assay can be also used to assess a selective inhibition or reduction of signaling output of a mutant Ras protein relative to a wildtype, or relative to a different mutant Ras protein. For example, the equilibrium interaction of wildtype Kras or K-Ras mutant (e.g., wildtype or a mutant thereof) with SOS1 (e.g., hSOS1) can be assessed as a proxy or an indication for a subject compound's ability to bind and inhibit Ras protein. HTRF assay detects from (i) a fluorescence resonance energy transfer (FRET) donor (e.g., antiGST-Europium) that is bound to GST-tagged K-Ras mutant to (ii) a FRET acceptor (e.g., anti-6His-XL665) bound to a His-tagged hSOS1.
(§2) The assay buffer can contain˜5 mM HEPES pH 7.4, ˜150 mM NaCl, ˜ 1 mM DTT, 0.05% BSA and 0.0025%(v/v) Igepal. A Ras working solution is prepared in an assay buffer containing typically a suitable amount of the protein construct (e.g., GST-tagged K-Ras mutant) and the FRET donor (e.g., antiGST-Eu(K) from Cisbio, France). A SOS1 working solution is prepared in an assay buffer containing suitable amount of the protein construct (e.g., His-hSOS1) and the FRET acceptor (e.g., anti-6His-XL665 from Cisbio, France). A suitable amount of the protein construct will depend on the range of activity or range of IC50 values being detected or under investigation. For detecting IC50 within a range of 500 nM, the protein constructs of the same range of molarity can be utilized.
(§3) A fixed volume of DMSO with or without test compound is transferred into a 384-well plate. Ras working solution is added to all wells of the test plate. SOS1 working solution is added to all wells except for those that are subsequently filled the inhibitor control solution. Upon incubation for about 10 minutes or longer, the fluorescence is measured with a M1000Pro plate reader (Tecan) using HTRF detection (excitation 337 nm, emission 1: 620 nm, emission 2: 665 nm). Compounds are tested in duplicates at different concentrations (for example, 10 μM, 2.5 μM, 0.63 μM, 0.16 μM, 0.04 μM, 0.01 μM test compound). The ratiometric data (i.e., emission 2 divided by emission 1) is used to calculate IC50 values against Ras using GraphPad Prism (GraphPad software). Following this general procedure, samples were tested with or without a subject compound disclosed herein including compounds exemplified in Table 1 to assess their abilities to inhibit a K-Ras mutant relative to another mutant or WT. Signaling output measured in terms of IC50 values can be obtained, a ratio of IC50 against one mutant relative to another mutant can be calculated. For instance, a selective reduction of K-Ras G12D signaling output can be evidenced by a ratio greater than one. In particular, a selective reduction of K-Ras G12D signaling relative to K-Ras WT signaling is evidenced as the ratio of IC50 (against K-Ras WT) to IC50 (against K-Ras G12D) is greater than 1.

In test [2] the target is T2, K-Ras G12S (Homo sapiens, UniProt P01116, G12S).
T2 construct: made in house; host or cells: E. coli BL21 (DE3)
T2 sequence (P01116 1-188 isoform P01116-2 G12S): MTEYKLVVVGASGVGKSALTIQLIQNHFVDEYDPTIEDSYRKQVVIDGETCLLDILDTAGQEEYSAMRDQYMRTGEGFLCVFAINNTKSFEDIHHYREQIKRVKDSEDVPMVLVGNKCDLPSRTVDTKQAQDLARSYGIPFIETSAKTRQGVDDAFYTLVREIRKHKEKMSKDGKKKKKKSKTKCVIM
Nature of the test: HTRF resonance energy transfer assay, K-Ras G12S / SOS1 interaction. As to conditions: HTRF assay of Example 5; read-out: IC50 against K-Ras G12S.
Description: as §1, §2, §3

The target in test [3] is T3, K-Ras G12V (Homo sapiens, UniProt P01116, G12V).
T3 construct: made in house; host or cells: E. coli BL21 (DE3)
T3 sequence (P01116 1-188 isoform P01116-2 G12V): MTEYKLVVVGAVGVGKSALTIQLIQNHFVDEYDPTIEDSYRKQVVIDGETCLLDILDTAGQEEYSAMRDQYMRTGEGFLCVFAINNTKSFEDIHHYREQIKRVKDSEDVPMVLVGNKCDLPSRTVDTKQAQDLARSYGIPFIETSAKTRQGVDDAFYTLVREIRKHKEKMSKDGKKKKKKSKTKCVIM
Nature of the test: HTRF resonance energy transfer assay, K-Ras G12V / SOS1 interaction. As to conditions: HTRF assay of Example 5; read-out: IC50 against K-Ras G12V.
Description: as §1, §2, §3
(In TR-FRET formats the signal depends on donor and acceptor labels being close together.)

Test [4] addresses T4, K-Ras WT (Homo sapiens, UniProt P01116).
T4 construct: made in house; host or cells: E. coli BL21 (DE3)
Nature of the test: HTRF resonance energy transfer assay, K-Ras WT / SOS1 interaction. The settings on record: HTRF assay of Example 5; read-out: IC50 against K-Ras WT.
Description: as §1, §2, §3

T4 sequence (P01116 1-188 isoform P01116-2): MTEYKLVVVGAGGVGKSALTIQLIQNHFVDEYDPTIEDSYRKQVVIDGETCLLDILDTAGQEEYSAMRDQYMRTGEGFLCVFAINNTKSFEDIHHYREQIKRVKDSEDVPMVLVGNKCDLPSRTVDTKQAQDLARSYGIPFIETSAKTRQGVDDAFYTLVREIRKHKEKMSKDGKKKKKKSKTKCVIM
T1 sequence (P01116 1-188 isoform P01116-2 G12D): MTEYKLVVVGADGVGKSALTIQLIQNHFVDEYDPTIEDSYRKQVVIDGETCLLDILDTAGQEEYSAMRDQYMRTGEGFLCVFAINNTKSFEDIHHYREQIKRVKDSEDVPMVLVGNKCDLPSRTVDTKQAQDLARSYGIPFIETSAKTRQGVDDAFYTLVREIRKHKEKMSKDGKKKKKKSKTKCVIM

On to `C=C(C(F)F)[C@H]1COc2c(Cl)c(-c3ccc(F)c4sc(N)c(C#N)c34)c(F)c3nc(OC[C@@]45CCCN4C[C@H](F)C5)nc(c23)N1CC(F)F` (single isomer, unassigned) [Compound 629], for which the half-inhibitory concentration (IC50) in test [1], in test [2], in test [3] and in test [4] was less than 100 nM throughout.

Turning to `N#Cc1c(N)sc2c(F)ccc(-c3c(Cl)c4c5c(nc(OC[C@@]67CCCN6C[C@H](F)C7)nc5c3F)N(CC(F)F)[C@@H](c3cnco3)CO4)c12` (single isomer, unassigned) [Compound 763], the IC50 in test [1], in test [2], in test [3] and in test [4] was less than 100 nM throughout.

Regarding `N#Cc1c(N)sc2c(F)ccc(-c3c(Cl)c4c5c(nc(OC[C@@]67CCCN6C[C@H](F)C7)nc5c3F)N(C3CCOC3)[C@@H](C(F)F)CO4)c12` (stereo partly drawn) [Compound 620, 2-amino-4-((5R)-8-chloro-5-(difluoromethyl)-10-fluoro-2-(((2R,7aS)-2-fluorotetrahydro-1H-pyrrolizin-7a(5H)-yl)methoxy)-4-(tetrahydrofuran-3-yl)-5,6-dihydro-4H-[1,4]oxazepino[5,6,7-de]quinazolin-9-yl)-7-fluorobenzo[b]thiophene-3-carbonitrile], the IC50 in test [1] and in test [4] was less than 100 nM in each case.

As to `N#Cc1c(N)sc2c(F)ccc(-c3c(Cl)c4c5c(nc(OC[C@@]67CCCN6C[C@H](F)C7)nc5c3F)N(CC(F)F)[C@@H](C3CCC3)CO4)c12` [Compound 692, 2-amino-4-((S)-8-chloro-5-cyclobutyl-4-(2,2-difluoroethyl)-10-fluoro-2-(((2R,7aS)-2-fluorotetrahydro-1H-pyrrolizin-7a(5H)-yl)methoxy)-5,6-dihydro-4H-[1,4]oxazepino[5,6,7-de]quinazolin-9-yl)-7-fluorobenzo[b]thiophene-3-carbonitrile], the IC50 in test [1], in test [3] and in test [4] was less than 100 nM in each case.

Consider `C[C@H]1COc2c(Cl)c(-c3ccc(F)c4sc(N)c(C#N)c34)c(F)c3nc(OC[C@@]45CCCN4C[C@H](F)C5)nc(c23)N1CC(F)F` [Compound 783, 2-amino-4-((5S)-8-chloro-4-(2,2-difluoroethyl)-10-fluoro-2-(((2R,7aS)-2-fluorotetrahydro-1H-pyrrolizin-7a(5H)-yl)methoxy)-5-methyl-5,6-dihydro-4H-[1,4]oxazepino[5,6,7-de]quinazolin-9-yl)-7-fluorobenzo[b]thiophene-3-carbonitrile], for which the half-maximal inhibitory concentration (IC50) in test [1] was less than 100 nM.

With `C[C@H]1CN(C2CCN(C(=O)C(F)F)CC2)c2nc(OC[C@@]34CCCN3C[C@H](F)C4)nc3c(F)c(-c4ccc(F)c5sc(N)c(C#N)c45)c(Cl)c(c23)O1` [Compound 822, 2-amino-4-((6S)-8-chloro-4-(1-(2,2-difluoroacetyl)piperidin-4-yl)-10-fluoro-2-(((2R,7aS)-2-fluorotetrahydro-1H-pyrrolizin-7a(5H)-yl)methoxy)-6-methyl-5,6-dihydro-4H-[1,4]oxazepino[5,6,7-de]quinazolin-9-yl)-7-fluorobenzo[b]thiophene-3-carbonitrile], the IC50 in test [1], in test [2] and in test [4] was less than 100 nM each time.

Consider `CS(=O)(=O)NCC1COc2c(Cl)c(-c3ccc(F)c4sc(N)c(C#N)c34)c(F)c3nc(OC[C@@]45CCCN4C[C@H](F)C5)nc(c23)N1CC(F)F` (stereo partly drawn) [Compound 867, N-((9-(2-amino-3-cyano-7-fluorobenzo[b]thiophen-4-yl)-8-chloro-4-(2,2-difluoroethyl)-10-fluoro-2-(((2R,7aS)-2-fluorotetrahydro-1H-pyrrolizin-7a(5H)-yl)methoxy)-5,6-dihydro-4H-[1,4]oxazepino[5,6,7-de]quinazolin-5-yl)methyl)methanesulfonamide], for which the half-maximal inhibitory concentration (IC50) in test [1], in test [2] and in test [4] was less than 100 nM in each case.

Take `C[C@H]1CN(CC2(N(C)C)CCC2)c2nc(OC[C@@]34CCCN3C[C@H](F)C4)nc3c(F)c(-c4ccc(F)c5sc(N)c(C#N)c45)c(Cl)c(c23)O1` [Compound 910, 2-amino-4-((6S)-8-chloro-4-((1-(dimethylamino)cyclobutyl)methyl)-10-fluoro-2-(((2R,7aS)-2-fluorotetrahydro-1H-pyrrolizin-7a(5H)-yl)methoxy)-6-methyl-5,6-dihydro-4H-[1,4]oxazepino[5,6,7-de]quinazolin-9-yl)-7-fluorobenzo[b]thiophene-3-carbonitrile]: the half-maximal inhibitory concentration (IC50) in test [1] and in test [4] was less than 100 nM throughout.

`N#Cc1c(N)sc2c(F)ccc(-c3c(Cl)c4c5c(nc(OC[C@@]67CCCN6C[C@H](F)C7)nc5c3F)N(CC3(C(F)(F)F)CC3)CCO4)c12` [Compound 953, 2-amino-4-(8-chloro-10-fluoro-2-(((2R,7aS)-2-fluorotetrahydro-1H-pyrrolizin-7a(5H)-yl)methoxy)-4-((1-(trifluoromethyl)cyclopropyl)methyl)-5,6-dihydro-4H-[1,4]oxazepino[5,6,7-de]quinazolin-9-yl)-7-fluorobenzo[b]thiophene-3-carbonitrile]: the IC50 in test [1], in test [2] and in test [4] was less than 100 nM each time.

As to `N#Cc1c(N)sc2c(F)ccc(-c3c(Cl)c4c5c(nc(OC[C@@]67CCCN6C[C@H](F)C7)nc5c3F)N(CC(F)F)C(C3CCNC3)CO4)c12` (stereo partly drawn) [Compound 1034, 2-amino-4-(8-chloro-4-(2,2-difluoroethyl)-10-fluoro-2-(((2R,7aS)-2-fluorotetrahydro-1H-pyrrolizin-7a(5H)-yl)methoxy)-5-(pyrrolidin-3-yl)-5,6-dihydro-4H-[1,4]oxazepino[5,6,7-de]quinazolin-9-yl)-7-fluorobenzo[b]thiophene-3-carbonitrile], the IC50 in test [1], in test [2] and in test [4] was less than 100 nM each time.

Take `C[C@H](Oc1nc2c3c(c(Cl)c(-c4ccc(F)c5sc(N)c(C#N)c45)c(F)c3n1)OCCN2C1CCCOCC1)[C@@H]1CCCN1C` (stereo partly drawn) [Compound 1121, 2-amino-4-(8-chloro-10-fluoro-2-((S)-1-((S)-1-methylpyrrolidin-2-yl)ethoxy)-4-(oxepan-4-yl)-5,6-dihydro-4H-[1,4]oxazepino[5,6,7-de]quinazolin-9-yl)-7-fluorobenzo[b]thiophene-3-carbonitrile]: the IC50 in test [2], in test [3] and in test [4] was less than 100 nM each time.

Consider `N#Cc1c(N)sc2c(F)ccc(-c3c(Cl)c4c5c(nc(OC[C@@]67CCCN6C[C@H](F)C7)nc5c3F)N(C3CCOC3)[C@@H](C3(C#N)CC3)CO4)c12` (stereo partly drawn) [Compound 1130, 2-amino-4-((5S)-8-chloro-5-(1-cyanocyclopropyl)-10-fluoro-2-(((2R,7aS)-2-fluorotetrahydro-1H-pyrrolizin-7a(5H)-yl)methoxy)-4-(tetrahydrofuran-3-yl)-5,6-dihydro-4H-[1,4]oxazepino[5,6,7-de]quinazolin-9-yl)-7-fluorobenzo[b]thiophene-3-carbonitrile], for which the IC50 in test [2], in test [3] and in test [4] was less than 100 nM throughout.

With `CN1c2nc(OC[C@@]34CCCN3C[C@H](F)C4)nc3c(F)c(-c4ccc(F)c5sc(N)c(C#N)c45)c(Cl)c(c23)OCC[C@H]1C1(F)CC1` [Compound 1221, 2-amino-4-((5S)-9-chloro-11-fluoro-5-(1-fluorocyclopropyl)-2-(((2R,7aS)-2-fluorotetrahydro-1H-pyrrolizin-7a(5H)-yl)methoxy)-4-methyl-4,5,6,7-tetrahydro-[1,5]oxazocino[4,3,2-de]quinazolin-10-yl)-7-fluorobenzo[b]thiophene-3-carbonitrile], the IC50 in test [2], in test [3] and in test [4] was less than 100 nM throughout.

The IC50 is the midpoint of a concentration-inhibition curve.
